Results from patent US12594262B2, “CAI nanoemulsions” (ForwardVue Pharma, Inc., priority 2019, dated 2026).

Columns and labels:
[1] = humans, single 5 mg peribulbar injection; cited from earlier work
[2] = cited from earlier work
[3] = Stability of CAI to autoclave sterilization, RP-HPLC analysis with UV detection; type: physicochemical; settings: autoclaving, for instance 121° C. for about 30 minutes
Description: Stable sterile formulations can then be prepared by autoclaving for sufficient time at temperatures suitable for effectively killing the microorganisms that may be present in the formulation, for instance, 121° C. for about 30 minutes.

[4] = cited from earlier work; remark: listed apart in the source
[5] = cited from earlier work; remark: listed apart in the source

| Structure (SMILES) | concentration detected in the vitreous cavity [1] | physiological tissue concentrations [2] | decomposition of CAI or formation of new impurities after sterilization [3] | plasma concentrations associated with unacceptable toxicity [4] | toxic effects observed in clinical studies ([5]; doses required to achieve circulating levels projected for inhibition of pathological neovascularization) | serious side effect of clinical use ([5]; systemic administration, two cases described (Berlin et al. 2002)) |
| --- | --- | --- | --- | --- | --- | --- |
| C[C@@H]1C[C@H]2[C@@H]3CCC4=CC(=O)C=C[C@]4(C)[C@@]3(F)[C@@H](O)C[C@]2(C)[C@@]1(O)C(=O)CO [Dexamethasone] | 13 ng/mL |  |  |  |  |  |
| NC(=O)c1nnn(Cc2cc(Cl)c(C(=O)c3ccc(Cl)cc3)c(Cl)c2)c1N [CAI] |  | 1-10 μM | no decomposition of CAI or formation of new impurities could be detected | above 100 micromolar | cerebellar ataxia, peripheral neuropathy and exacerbation of depression | loss of vision |
